Results from patent US20080167201A1, “Method For Synthesizing Derivative, Compound Library and Method For Constructing the Same, and Method For Screening” (priority 2004, published 2008).

Legend:
[1] = system: EC17 cells derived from human esophageal cancer; experiment: cell migration inhibition, scratch assay with EC17 cells; format: cell-based; settings: compound added immediately after scratching, 24 hr incubation, microscopic observation (FIG. 4)
Protocol: 500 μl of suspension of EC17 cells derived from human esophageal cancer (1.5×10^5 cells/ml; RPMI1640 medium (Nissui)) was added to each well of a 48-well plate and incubated at 37° C. for 24 hr. Then, the cells were linearly scraped off by scratching the center of the bottom of each well in a straight line with a micropipette tip. Then, the supernatant of the culture broth was immediately removed. The well was washed with 300 μl of PBS^− (8 g/l NaCl, 0.2 g/l KCl, 0.916 g/l Na2HPO4, 0.2 g/l KH2PO4) carefully not to scrape the remaining cells, and 500 μl of a RPMI1640 medium containing 1% serum (FBS; manufactured by Tissue Culture Biologicals) was gently added to the well. Further, migrastatin or oxidized migrastatin was added thereto and incubated at 37° C. for 24 hr. In addition, a culture broth to which migrastatin and oxidized migrastatin were not added was similarly incubated as a control. After the incubation, how much the straight line formed with the micropipette tip was filled with cells which had migrated from surroundings was confirmed by microscopic observation to evaluate migration of the cells.

[2] = system: HT-29 cells derived from human colon cancer; experiment: ATP synthesis (ATP content by luciferase luciferin) in HT-29 cells; format: cell-based; settings: 3 hr incubation, same concentration range as inhibits cell migration (FIG. 5)
Protocol: 1 ml of suspension of HT-29 cells derived from human colon cancer (4×10^5 cells/ml; RPMI1640 medium) was added to each well of a 24-well plate and incubated at 37° C. for 24 hr. Then, migrastatin or oxidized migrastatin was added thereto and incubated for 3 hr. In addition, a cultured broth to which migrastatin and oxidized migrastatin were not added was similarly incubated as a control. After the incubation, each well was washed twice with ice-cooled PBS^−. After an addition of 200 μl of 2% trichloroacetic acid, the plate was left at 4° C. for 30 min. The supernatant (160 μl) was neutralized with 36.8 μl of 0.5 N NaOH and used as a sample. This sample (160 μl) was added to 3 ml of PBS^− containing 4 mM MgCl2. Then, 40 μl of 4 mg/ml luciferase luciferin (Sigma) was added thereto and immediately the ATP content was measured with a single-photon monitor of a scintillation counter (LS-5000TD: BECKMAN COULTER). In addition, the ATP content under the conditions where the sample and luciferase luciferin were not added was measured as a blank value and was subtracted from each measurement value.

SMILES	migration of cells ([1]; concentration of 30 μl/ml)	inhibition of migration of cells over the concentration range [1]	inhibition of ATP synthesis [2]
CO[C@H]1/C=C/CC/C=C/C(=O)O[C@H]([C@H](C)C(=O)CCCC2CC(=O)NC(=O)C2)/C(C)=C\[C@@H](C)[C@@H]1O [migrastatin]	completely inhibited	inhibited depending on the concentration of migrastatin	inhibited ATP synthesis
CO[C@H]1/C=C/CC/C=C/C(=O)O[C@H]([C@H](C)C(=O)CCCC2CC(=O)NC(=O)C2)/C(C)=C\[C@@H](C)C1=O [oxidized migrastatin, migrastatin oxide]		inhibition effect was observed at almost the same concentration range	did not inhibit ATP synthesis at all
